Where a SMILES comes first, the peptide text is derived from it. The star is where a group is joined. Dansyl = CN(C)c1cccc2c(S(=O)(=O)*)cccc12; Desaminotyrosyl = O=C(CCc1ccc(O)cc1)*
What was measured:
[1] = biological target: Neuropeptide FF receptor 2 (Rattus norvegicus, UniProt Q9EQD2); assay: Binding affinity towards NPFF receptor was measured by the displacement of [125I]-YLFQPQRF-NH2
[2] = K' value on the basis of IAM (immobilized artificial membrane) retention; format: functional

Chain of Neuropeptide FF receptor 2 (Q9EQD2 whole entry): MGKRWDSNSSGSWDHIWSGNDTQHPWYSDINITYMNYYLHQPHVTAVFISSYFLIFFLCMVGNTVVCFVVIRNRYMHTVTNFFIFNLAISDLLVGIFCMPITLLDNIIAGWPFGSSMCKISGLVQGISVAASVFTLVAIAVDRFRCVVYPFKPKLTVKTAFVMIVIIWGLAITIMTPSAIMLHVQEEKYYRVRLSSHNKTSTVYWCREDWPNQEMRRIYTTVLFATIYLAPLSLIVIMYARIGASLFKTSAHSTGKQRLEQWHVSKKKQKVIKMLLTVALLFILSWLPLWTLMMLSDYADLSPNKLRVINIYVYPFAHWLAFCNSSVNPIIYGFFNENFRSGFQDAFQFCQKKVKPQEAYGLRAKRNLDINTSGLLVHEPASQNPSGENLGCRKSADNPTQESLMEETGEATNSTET

Compound | Ki [1] [nM] | kIAM' [2]
CN(C)c1cccc2c(S(=O)(=O)NCC(=O)N[C@@H](CO)C(=O)N[C@@H](CCCN=C(N)N)C(N)=O)cccc12 (Dansyl-Gly-Ser-Arg-NH2) | 1400 | 8
CC(C)C[C@H](NC(=O)[C@H](Cc1ccccc1)NC(=O)CCc1ccc(O)cc1)C(=O)N[C@@H](Cc1ccccc1)C(=O)N[C@@H](CCC(N)=O)C(=O)N1CCC[C@H]1C(=O)N[C@@H](CCC(N)=O)C(=O)N[C@@H](CCCNC(=N)N)C(N)=O (Desaminotyrosyl-FLFQPQR-NH2) | 840 | 
CN(C)c1cccc2c(S(=O)(=O)N3CCC[C@H]3C(=O)N[C@@H](CCC(N)=O)C(=O)N[C@@H](CCCNC(=N)N)C(N)=O)cccc12 [DANSYLPQRAMIDE] | 13600 | 5.9

Source: ChEMBL document CHEMBL1134477, “Combinatorial lead optimization of a neuropeptide FF antagonist” (J Med Chem, 2001)
